Data from patent US6831106B1, “Vitamin D analogues” (Galderma Research & Development, S.N.C., priority 1999, dated 2004).

Target: T1, human VDR receptor (Homo sapiens, UniProt P11473)
T1 construct: expressed in transfected cells; host or cells: HeLa
T1 sequence (P11473 1-427): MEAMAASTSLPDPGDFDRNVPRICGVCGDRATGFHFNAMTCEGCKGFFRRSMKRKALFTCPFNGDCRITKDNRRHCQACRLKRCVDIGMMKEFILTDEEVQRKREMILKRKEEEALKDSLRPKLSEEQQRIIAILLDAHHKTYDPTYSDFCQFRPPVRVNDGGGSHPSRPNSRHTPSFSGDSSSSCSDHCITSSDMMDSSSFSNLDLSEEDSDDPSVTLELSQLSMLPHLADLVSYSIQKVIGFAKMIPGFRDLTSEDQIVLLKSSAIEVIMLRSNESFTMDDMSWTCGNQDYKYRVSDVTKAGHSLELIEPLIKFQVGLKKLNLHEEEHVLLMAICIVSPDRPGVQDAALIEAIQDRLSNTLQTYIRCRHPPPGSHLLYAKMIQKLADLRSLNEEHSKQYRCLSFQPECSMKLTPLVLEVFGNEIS
Test: VDR agonist activity, co-transfection of human VDR expression vector and p240Hase-CAT reporter in HeLa cells
Type: cell-based
Settings: HeLa cell line, CAT reporter under rat 24-hydroxylase promoter, 18 hours treatment, ELISA; read-out: AC 50 (dose required to achieve 50% of the maximum activity of the product)
Method: By way of example, the VDR agonist activity can be tested on the HeLa cell line by co-transfection with an expression vector for the human VDR receptor and the reporter plasmid p240Hase-CAT which contains the region −1399 to +76 of rat 24-hydroxylase promoter, cloned upstream of the frame encoding the chloramphenicol-acetyl-transferase (CAT)′gene. 18 hours after co-transfection, the test product is added to the medium. 18 hours after treatment, assay of the CAT activity in the cell lysates is carried out by an ELISA test. The results are expressed as percentages of the effect normally observed with 10^−7M calcitriol.
The agonist activity can also be characterized in this co-transfection system, by determining the dose required to reach 50% of the maximum activity of the product (AC50).
The VDR agonist activity was tested on the HeLa cell line, by co-transfection of an expression vector of the human VDR receptor and of the reporter plasmid p240Hase-CAT which contains the region −1399 to +76 of the rat 24-hydroxylase promoter, cloned upstream of the coding frame of the chloramphenicol-acetyl-transferase (CAT) gene. 18 hours after co-transfection, the test product is added to the medium. After treatment for 18 hours, the CAT activity of the cell lysates is assayed by an ELISA test. The results are expressed as a percentage of the effect normally observed with 10^−7 M of calcitriol.
The agonist activity was characterized in this co-transfection system by determining the dose required to achieve 50% of the maximum activity of the product (AC50).

Row | SMILES | AC50 [µM]
1 | CCC(O)(CC)c1ccc(-c2cc(OCc3ccc(CO)c(CO)c3)ccc2C)c(C)c1 [Example 16, {4-[4′-(1-Ethyl-1-hydroxypropyl)-6,2′-dimethylbiphenyl-3-yloxymethyl]-2-hydroxymethylphenyl}methanol] | 0.046
2 | CCC(O)(CC)c1ccc(-c2cccc(COc3ccc(CO)c(CO)c3)c2)c(C)c1 [Example 22, {4-[4′-(1-Ethyl-1-hydroxypropyl)-2′-methylbiphenyl-3-ylmethoxy]-2-hydroxymethylphenyl}methanol] | 0.451
3 | CCC(O)(CC)c1cc(C)c(-c2cc(OCc3ccc(CO)c(CO)c3)ccc2C)c(C)c1 [Example 17, {4-[4′-(1-Ethyl-1-hydroxypropyl)-6,2′,6′-trimethylbiphenyl-3-yloxymethyl]-2-hydroxymethylphenyl}methanol] | 0.194
4 | CCC(O)(CC)c1ccc(-c2cc(OCc3ccc(CO)c(CO)c3)ccc2C)cc1 [Example 18, {4-[4′-(1-Ethyl-1-hydroxypropyl)-6-methylbiphenyl-3-yloxymethyl]-2-hydroxymethylphenyl}methanol] | 0.133

Second part, the molecule after the results:

Row | AC50 [µM] | SMILES
5 | 0.47 | CCC(O)(CC)c1ccc(-c2cccc(OCc3ccc(CO)c(CO)c3)c2)c(C)c1 [Example 3, {5-4′-[(1-Ethyl-1-hydroxypropyl)-2′-methylbiphenyl-3-yloxymethyl]-2-hydroxymethylphenyl}methanol]
6 | 0.291 | CCC(O)(CC)c1ccc(-c2cccc(OCc3ccc(CO)c(CO)c3)c2C)c(C)c1 [Example 11, {4-[4′-(1-Ethyl-1-hydroxypropl)-2,2′-dimethylbiphenyl-3-yloxymethyl]-2-hydroxymethylphenyl}methanol]
7 | 2.04 | CCC(O)(CC)c1ccc(-c2cccc(SCc3ccc(CO)c(CO)c3)c2)c(C)c1 [Example 10, {4-[4′-(1-Ethyl-1-hydroxypropyl)-2′-methylbiphenyl-3-ylsulphanylmethyl]-2-hydroxymethylphenyl}methanol]

Tested on: seborrhoeic scalp
Test: antiseboric lotion applied to a seborrhoeic scalp
Type: in vivo
Settings: lotion with 0.030 g compound per 100 g, applied twice a day, within a period of 2 to 6 weeks

Row | SMILES | improvement of seborrhoeic scalp
8 | CCCC(O)(CCC)c1ccc(-c2cccc(OCc3ccc(CO)c(CO)c3)c2C)c(C)c1 [Example 12, {2-Hydroxymethyl-4-[4′-(1-hydroxy-1-propylbutyl)-2,2′-dimethylbiphenyl-3-yloxymethyl]phenyl}methanol] | significant improvement
